Measurements taken from patent US4732909A, “3-(3-halophenyl-3,4-diazatetracyclo-[6.3.1.1^6,10.0^1,5 ]tridec-4-en-2-one compounds and use thereof to treat hypoxia” (Pennwalt Corporation, priority 1987, dated 1988).

Legend:
mice = experiment: antihypoxia test: survival duration of mice in normobaric atmosphere of 96% nitrogen and 4% oxygen; type: in vivo
Source text: The antihypoxia test measures the survival duration of mice in a normobaric atmosphere consisting of 96% nitrogen and 4% oxygen, at ambient temperature. The mice are considered dead when they stop visible aspiration. The test indicates potential clinical utility in situations of central nervous system hypoxia, such as occurs following stroke, cardiac arrest, and traumatic accidents.

Estimated LD50 = type: in vivo; settings: ip
in vivo = settings: ip

In the case of `O=C1N(c2cccc(Cl)c2)N=C2C3CC4CC(C3)CC12C4` [3-(3-Chlorophenyl)-3,4-diazatetracyclo[6.3.1.1^6,10.0^1,5]tridec-4-en-2-one], the “Antihypoxia, Survial Minutes, Compound” value (mice; 2.5 mg/kg ip, N=10, ambient temp., control 8.7, P NS (P > 0.05)) is reported as 8.0 min, the “Antihypoxia, Survial Minutes, Compound” value (mice; 5 mg/kg ip, N=10, ambient temp., control 8.7, P <0.05) is reported as 10.5 min and the “Antihypoxia, Survial Minutes, Compound” value (mice; 10 mg/kg ip, N=10, ambient temp., control 6.9, P <0.05) is reported as 9.5 min. For the same molecule, the “Antihypoxia, Survial Minutes, Compound” value (mice; 25 mg/kg ip, N=5, ambient temp., control 8.7, P 0.075) was 13.0 min, the “Antihypoxia, Survial Minutes, Compound” value (mice; 25 mg/kg ip, N=10, ambient temp., control 6.9, P <0.05) was 12.6 min and the “prolongation of survival of mice (in words)” value (mice; 25 mg/kg, intraperitoneally) was “prolonged the survival of mice by a very significant margin”. The “Estimated LD50” value (Estimated LD50) was greater than 100 mg/kg and the TD50 (in vivo) was 25 mg/kg.
